The target in the assay is T1, TrkA (Homo sapiens, UniProt P04629).
T1 construct: purchased Invitrogen PV3144
T1 sequence (P04629 33-796): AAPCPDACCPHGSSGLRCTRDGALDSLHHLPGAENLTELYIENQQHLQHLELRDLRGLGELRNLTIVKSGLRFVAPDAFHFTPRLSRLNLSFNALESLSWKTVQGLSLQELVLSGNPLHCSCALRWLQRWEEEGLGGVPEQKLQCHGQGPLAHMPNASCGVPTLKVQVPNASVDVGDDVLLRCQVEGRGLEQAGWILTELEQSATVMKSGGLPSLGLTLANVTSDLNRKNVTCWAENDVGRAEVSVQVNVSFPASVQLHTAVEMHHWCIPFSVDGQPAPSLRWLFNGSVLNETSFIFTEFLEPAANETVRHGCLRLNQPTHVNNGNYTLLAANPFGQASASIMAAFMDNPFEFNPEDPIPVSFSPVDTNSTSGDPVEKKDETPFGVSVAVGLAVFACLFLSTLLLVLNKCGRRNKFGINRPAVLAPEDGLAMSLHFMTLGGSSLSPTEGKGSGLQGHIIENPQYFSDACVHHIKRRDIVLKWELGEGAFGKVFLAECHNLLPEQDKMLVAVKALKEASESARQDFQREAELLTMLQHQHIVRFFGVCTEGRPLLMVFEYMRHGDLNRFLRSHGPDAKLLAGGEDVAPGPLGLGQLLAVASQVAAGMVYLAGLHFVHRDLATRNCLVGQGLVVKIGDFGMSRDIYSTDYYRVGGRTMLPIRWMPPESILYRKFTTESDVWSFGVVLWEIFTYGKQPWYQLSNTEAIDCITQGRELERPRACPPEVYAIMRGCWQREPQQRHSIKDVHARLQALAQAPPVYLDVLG
Nature of the assay: TrkA kinase inhibition, HTRF assay. It counts as biochemical. Particulars: LCK peptide substrate 125 nM, TrkA 2-10 nM pre-incubated with ATP 200 μM. A digest of the protocol:
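TrkA (2-10 nM) preactivated 20 min with 200 μM ATP in HEPES pH 7.4 with Mg2+/Mn2+, then compound for 10 min, then 125 nM biotinylated LCK-peptide for 1 h at ambient temperature. HTRF 665/620 ratio read; IC50 fitted from initial-rate percent inhibition.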
Background: Time-resolved FRET reads energy transfer from a long-lived donor to a nearby acceptor.
As a reminder, the IC50 is the concentration needed to halve the response being measured. In turn, `CC(=O)N1CCN(c2cc(-c3cc(OC(C)C(F)(F)F)c4c(N)n[nH]c4c3)ccc2C(N)=O)CC1` (stereo not drawn) [Example 96, 2-(4-acetylpiperazin-1-yl)-4-{3-amino-4-[(1,1,1-trifluoropropan-2-yl)oxy]-1H-indazol-6-yl}benzamide] had an IC50 of 89.2 nM. Then `CC(Oc1cc(-c2ccc(C(N)=O)c(N3CCN(C4CC4)CC3)c2)cc2[nH]nc(N)c12)C(F)(F)F` (stereo not drawn) [Example 97, 4-{3-amino-4-[(1,1,1-trifluoropropan-2-yl)oxy]-1H-indazol-6-yl}-2-(4-cyclopropylpiperazin-1-yl)benzamide], with 27.3 nM; and `CC(Oc1cc(-c2ccc(C(N)=O)c(N3CCN(c4ccncc4)CC3)c2)cc2[nH]nc(N)c12)C(F)(F)F` (stereo not drawn) [Example 98, 4-{3-amino-4-[(1,1,1-trifluoropropan-2-yl)oxy]-1H-indazol-6-yl}-2-[4-(pyridin-4-yl)piperazin-1-yl]benzamide], with 539 nM; and `CC(Oc1cc(-c2ccc(C(N)=O)c(N3C[C@H]4CN(Cc5ccccc5)C[C@H]4C3)c2)cc2[nH]nc(N)c12)C(F)(F)F` (stereo partly drawn) [Example 99, 4-{3-amino-4-[(1,1,1-trifluoropropan-2-yl)oxy]-1H-indazol-6-yl}-2-[(3aR*,6aS*)-5-benzylhexahydropyrrolo[3,4-c]pyrrol-2(1H)-yl]benzamide], with 852 nM. As for `CC(Oc1cc(-c2ccc(C(N)=O)c(N3CCN(CCC(C)(C)C)CC3)c2)cc2[nH]nc(N)c12)C(F)(F)F` (stereo not drawn) [Example 100, 4-{3-amino-4-[(1,1,1-trifluoropropan-2-yl)oxy]-1H-indazol-6-yl}-2-[4-(3,3-dimethylbutyl)piperazin-1-yl]benzamide], the IC50 stood at 4.98 nM. The molecule `CC(Oc1cc(-c2ccc(C(N)=O)c(N3CCN(C(=O)C4CC4)CC3)c2)cc2[nH]nc(N)c12)C(F)(F)F` (stereo not drawn) [Example 103, 4-{3-amino-4-[(1,1,1-trifluoropropan-2-yl)oxy]-1H-indazol-6-yl}-2-[4-(cyclopropylcarbonyl)piperazin-1-yl]benzamide] yielded an IC50 of 19.4 nM. In the case of `CC(Oc1cc(-c2ccc(C(N)=O)c(N3CCN(C(=O)C(C)(C)C)CC3)c2)cc2[nH]nc(N)c12)C(F)(F)F` (stereo not drawn) [Example 104, 4-{3-amino-4-[(1,1,1-trifluoropropan-2-yl)oxy]-1H-indazol-6-yl}-2-[4-(2,2-dimethylpropanoyl)piperazin-1-yl]benzamide], the IC50 stood at 14 nM. The molecule `CNC(=O)c1ccc(-c2cc(O[C@H](C)C(F)(F)F)c3c(N)n[nH]c3c2)cc1OCCOC1CCCCC1` [Example 105, 4-(3-amino-4-{[(2R)-1,1,1-trifluoropropan-2-yl]oxy}-1H-indazol-6-yl)-2-[2-(cyclohexyloxy)ethoxy]-N-methylbenzamide] had an IC50 of 3.23 nM. As for `CNC(=O)c1ccc(-c2cc(O[C@H](C)C(F)(F)F)c3c(N)n[nH]c3c2)cc1OCCOc1ccccc1` [Example 106, 4-(3-amino-4-{[(2R)-1,1,1-trifluoropropan-2-yl]oxy}-1H-indazol-6-yl)-N-methyl-2-(2-phenoxyethoxy)benzamide], the half-maximal inhibitory concentration (IC50) is 2.67 nM.

Turning to `NC(=O)c1ccc(-c2cc(OC3CCCC3)c3c(N)n[nH]c3c2)cc1N1CCN(CC(=O)N2CCCCC2)CC1` [Example 107, 4-[3-amino-4-(cyclopentyloxy)-1H-indazol-6-yl]-2-{4-[2-oxo-2-(piperidin-1-yl)ethyl]piperazin-1-yl}benzamide], the IC50 was 44 nM. Then `CNC(=O)c1ccc(-c2cc(OC3CCOCC3)c3c(N)n[nH]c3c2)cc1N1CCN(C(=O)OC(C)(C)C)CC1` [Example 111, tert-butyl 4-{5-[3-amino-4-(tetrahydro-2H-pyran-4-yloxy)-1H-indazol-6-yl]-2-(methylcarbamoyl)phenyl}piperazine-1-carboxylate], with 26.8 nM; and `CNC(=O)c1ccc(-c2cc(OC3CCOCC3)c3c(N)n[nH]c3c2)cc1N1CCNCC1` [Example 112, 4-[3-amino-4-(tetrahydro-2H-pyran-4-yloxy)-1H-indazol-6-yl]-N-methyl-2-(piperazin-1-yl)benzamide], with 7.11 nM. The molecule `CNC(=O)c1ccc(-c2cc(OC3CCOCC3)c3c(N)n[nH]c3c2)cc1N1CCN(C(=O)OC(C)C)CC1` [Example 114, isopropyl 4-{5-[3-amino-4-(tetrahydro-2H-pyran-4-yloxy)-1H-indazol-6-yl]-2-(methylcarbamoyl)phenyl}piperazine-1-carboxylate] gave a half-maximal inhibitory concentration (IC50) of 80.8 nM. Then `CCNC(=O)c1ccc(-c2cc(OC3CCOCC3)c3c(C)n[nH]c3c2)cc1N1CCN(c2ccccc2)CC1` [Example 115, N-ethyl-4-[3-methyl-4-(tetrahydro-2H-pyran-4-yloxy)-1H-indazol-6-yl]-2-(4-phenylpiperazin-1-yl)benzamide], with 32.8 nM; and `CNC(=O)c1ccc(-c2cc(OC3CCOCC3)c3cn[nH]c3c2)cc1N1CCN(C2CCCCC2)CC1` [Example 116, 2-(4-cyclohexylpiperazin-1-yl)-N-methyl-4-[4-(tetrahydro-2H-pyran-4-yloxy)-1H-indazol-6-yl]benzamide], with 77.8 nM; and `Cc1n[nH]c2cc(-c3ccc(C(=O)NC4CC4)c(N4CCN(c5ccccc5)CC4)c3)cc(OC3CCOCC3)c12` [Example 117, N-cyclopropyl-4-[3-methyl-4-(tetrahydro-2H-pyran-4-yloxy)-1H-indazol-6-yl]-2-(4-phenylpiperazin-1-yl)benzamide], with 17.7 nM. `Cc1n[nH]c2cc(-c3ccc(C(=O)NC4CCC4)c(N4CCN(C5CCCCC5)CC4)c3)cc(OC3CCOCC3)c12` [Example 118, N-cyclobutyl-2-(4-cyclohexylpiperazin-1-yl)-4-[3-methyl-4-(tetrahydro-2H-pyran-4-yloxy)-1H-indazol-6-yl]benzamide] registered an IC50 of 39.8 nM. In the case of `CC(=O)Nc1ccc(-c2cc(OC3CCOCC3)c3c(C)n[nH]c3c2)cc1N1CCN(C2CCCCC2)CC1` [Example 119, N-{2-(4-cyclohexylpiperazin-1-yl)-4-[3-methyl-4-(tetrahydro-2H-pyran-4-yloxy)-1H-indazol-6-yl]phenyl}acetamide], half-maximal inhibition (IC50) was put at 31.1 nM.

Turning to `CCNC(=O)c1ccc(-c2cc(OC3CCCC3)c3cn[nH]c3c2)cc1N1CCN(c2ccccc2)CC1` [Example 120, 4-[4-(cyclopentyloxy)-1H-indazol-6-yl]-N-ethyl-2-(4-phenylpiperazin-1-yl)benzamide], the IC50 was 82.5 nM. Consider `CNC(=O)c1ccc(-c2cc(OC3CCCC3)c3c(C)n[nH]c3c2)cc1N1CCN(C2CCCCC2)CC1` [Example 121, 2-(4-cyclohexylpiperazin-1-yl)-4-[4-(cyclopentyloxy)-3-methyl-1H-indazol-6-yl]-N-methylbenzamide], for which half-maximal inhibition (IC50) required 17.3 nM. Then `CNC(=O)c1ccc(-c2cc(OC3CCOCC3)c3c(C)n[nH]c3c2)cc1N1CCN(C(=O)OC(C)(C)C)CC1` [Example 122, tert-butyl 4-{2-(methylcarbamoyl)-5-[3-methyl-4-(tetrahydro-2H-pyran-4-yloxy)-1H-indazol-6-yl]phenyl}piperazine-1-carboxylate], with 8.14 nM; and `CNC(=O)c1ccc(-c2cc(OC3CCOCC3)c3c(C)n[nH]c3c2)cc1N1CCN(Cc2cccnc2)CC1` [Example 123, N-methyl-4-[3-methyl-4-(tetrahydro-2H-pyran-4-yloxy)-1H-indazol-6-yl]-2-[4-(pyridin-3-ylmethyl)piperazin-1-yl]benzamide], with 3.75 nM. To `CNC(=O)c1ccc(-c2cc(OC3CCOCC3)c3c(C)n[nH]c3c2)cc1N1CCN(C(=O)C2CC2)CC1` [Example 124, 2-[4-(cyclopropylcarbonyl)piperazin-1-yl]-N-methyl-4-[3-methyl-4-(tetrahydro-2H-pyran-4-yloxy)-1H-indazol-6-yl]benzamide] belongs 19.2 nM; to `CNC(=O)c1ccc(-c2cc(OC3CCOCC3)c3c(C)n[nH]c3c2)cc1OCCOC1CCCCC1` [Example 126, 2-[2-(cyclohexyloxy)ethoxy]-N-methyl-4-[3-methyl-4-(tetrahydro-2H-pyran-4-yloxy)-1H-indazol-6-yl]benzamide], 4.74 nM. Then `CC(=O)Nc1ccc(-c2cc(OC3CCCC3)c3c(C)n[nH]c3c2)cc1NCCOc1ccccc1` [Example 127, N-{4-[4-(cyclopentyloxy)-3-methyl-1H-indazol-6-yl]-2-[(2-phenoxyethyl)amino]phenyl}acetamide], with 49 nM; and `CNC(=O)c1ccc(-c2cc(OC3CCCC3)c3c(C)n[nH]c3c2)cc1N1CCN(C(=O)OCC(C)C)CC1` [Example 128, isobutyl 4-{5-[4-(cyclopentyloxy)-3-methyl-1H-indazol-6-yl]-2-(methylcarbamoyl)phenyl}piperazine-1-carboxylate], with 214 nM; and `CNC(=O)c1ccc(-c2cc(OC3CCCC3)c3c(C)n[nH]c3c2)cc1N1CCN(C(=O)OCc2ccccc2)CC1` [Example 129, benzyl 4-{5-[4-(cyclopentyloxy)-3-methyl-1H-indazol-6-yl]-2-(methylcarbamoyl)phenyl}piperazine-1-carboxylate], with 50.8 nM. The molecule `C=CC(=O)Nc1ccc(-c2cc(OC3CCOCC3)c3c(C)n[nH]c3c2)cc1N1CCN(C2CCCCC2)CC1` [Example 131, N-{2-(4-cyclohexylpiperazin-1-yl)-4-[3-methyl-4-(tetrahydro-2H-pyran-4-yloxy)-1H-indazol-6-yl]phenyl}acrylamide] showed an IC50 of 46.9 nM. `Cc1n[nH]c2cc(-c3ccc(C(N)=O)cc3)cc(OC3CCOCC3)c12` [Example 132, 4-[3-methyl-4-(tetrahydro-2H-pyran-4-yloxy)-1H-indazol-6-yl]benzamide] registered an IC50 of 34.1 nM. To `CC(=O)C(=O)Nc1ccc(-c2cc(OC3CCOCC3)c3c(C)n[nH]c3c2)cc1N1CCN(C2CCCCC2)CC1` [Example 133, N-{2-(4-cyclohexylpiperazin-1-yl)-4-[3-methyl-4-(tetrahydro-2H-pyran-4-yloxy)-1H-indazol-6-yl]phenyl}-2-oxopropanamide] belongs 15.9 nM.

For the origin of these results see patent publication US20160376240A1, “6 Phenyl or 6 Pyridin 3 YL Indazole Derivatives and Methods of Use” (ABBVIE INC., priority 2014, published 2016).
